pEC50: −log10 of the molar value. Like-named read-outs stand apart in the source and are kept apart here. Values belong to the compound of their own block, whether it stands above or below them.
What was measured:
[1] = molecular target: T1, GPR35 (Homo sapiens, UniProt Q9HC97, S294R); conditions: UGPR35β cells
Method: (§3) Loss of cell surface receptor may be evaluated by methods such as On-Cell Western analysis of the cells under treatment.
(§4) In a non-limiting example, a cell line that expresses N-terminal triple HA-tagged GPR35 receptor is used. After contacting the cells with a candidate GPR35 agonist and incubating the system for a set period of time, the cells are incubated with an anti-HA mouse antibody, followed by incubation with a fluorophore-labeled anti-mouse antibody. The resulting observed fluorescence is then used to assess the level of GPR35 receptor on the cell surface.
(§5) The previously described U2OS cells expressing HA-GPR35a/βarr2-GFP (also known as UGPR35β cells) were seeded and grown until confluence on the bottoms of a 96-well plate. […] Cells were washed once with Hanks' balanced salt solution (HBSS, Cellgro, Mediatech, Inc, Manassas, Va., USA) prior to appropriate drug treatment and then fixed with 4% formaldehyde for 20 minutes at room temperature. This step was followed by three washes with PBS for 5 minutes each.
(§6) The secondary antibody (IRDye 800 conjugated anti-mouse IgG, Rockland, Gilbertsville, Pa.; 1:1000 in LI-COR Odyssey® blocking buffer) was then added to the treated cells and incubated for 1 hour at room temperature protected from light.
(§7) Cells grown on coverslips were incubated over ice for 40 minutes with a 1:500 dilution of mouse monoclonal anti-HA antibody in blocking buffer (3% BSA in PBS), followed by three consecutive washes with PBS. […] Antibody-labeled cells were treated with agonist alone or in combination with antagonist for 40 minutes at 37° C., and the cells were then imaged.
(§8) On-Cell western analysis was performed using a LI-COR odyssey infra-red imager to quantify ligand potency to induce loss of cell surface receptor.
(§9) For each concentration of the compound of interest, the intensity of labeling was measured using immunofluorescence. The readings were plotted against the compound concentrations, yielding binding curves that allowed the calculation of EC50 values (FIGS. 6C-E).

[2] = Middle cerebral artery occlusion with reperfusion (MCAO/R) stroke model; assay type: in vivo; conditions: male mice
Method: Several animal-based models for stroke have been proposed and validated, such as the artery occlusion and reperfusion model in male mice described by Zhang and coworkers (Microvasc. Res., 2009, 78(1):86-94). In this model, the animals are submitted to middle cerebral artery occlusion for a period of 60 minutes and then reperfusion is allowed. Cerebral infarction volume is measured by analyzing sections of the animal brain stained with triphenyltetrazolium chloride. Triphenyltetrazolium chloride is believed to be reduced to red formazan by mitochondrial enzymes, specifically succinate dehydrogenase (Lippold, 1982, Histochemistry 76:381-405). […] Therefore, TTC staining is extensively used in animal stroke experiments for quantitatively delineating the infarct volume (Memezawa et al., 1992, Exp. Brain Res. 89:67-78.; Hasegawa et al., 1995, J. Cereb. Blood Flow Metab. 15:179-187; Kuge et al., 1995, Stroke 26:1655-1658; Fuhai et al., 1997, J. Cereb. Blood Flow Metab. 17:1132-1135). […]
Cerebral infarction volume was measured 24 hours after MCAO/R. The animals were euthanized with an overdose of pentobarbital (200 mg/kg i.p.) 24 hours after MCAO and the brains were removed, and chilled on ice for 10 min to slightly harden the tissue. […]

[3] = Acetic acid writhing (abdominal constriction) test in mice; conditions: for mean number of writhes: male Swiss Webster mice, 0.6% acetic acid i.p., saline control 21±1
[4] = molecular target: T2, GPR55 receptors (Homo sapiens, UniProt Q9Y2T6); experiment: βarr2-GFP redistribution in U2OS cells co-expressing GPR55 (specificity control); assay type: cell-based; conditions: U2OS cells co-expressing βarr2-GFP and GPR55, 1 μM; data not shown
T2 construct: expressed in transfected cells; host or cells: U2OS cells
T2 sequence (Q9Y2T6 whole entry): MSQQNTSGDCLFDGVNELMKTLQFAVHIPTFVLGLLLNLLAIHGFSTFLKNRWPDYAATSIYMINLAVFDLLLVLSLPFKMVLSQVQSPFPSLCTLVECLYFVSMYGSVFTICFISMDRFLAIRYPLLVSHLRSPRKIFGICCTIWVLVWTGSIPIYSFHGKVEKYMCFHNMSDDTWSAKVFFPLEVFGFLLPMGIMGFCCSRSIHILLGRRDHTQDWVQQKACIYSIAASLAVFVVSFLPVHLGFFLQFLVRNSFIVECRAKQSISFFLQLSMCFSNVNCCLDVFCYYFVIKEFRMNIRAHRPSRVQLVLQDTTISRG

[5] = molecular target: T3, vasopressin receptor (V2R) (Homo sapiens, UniProt P30518); experiment: β-arrestin2-GFP redistribution in U2OS cells overexpressing V2R (specificity control); assay type: cell-based; conditions: U2OS cells with β-arrestin2-GFP and overexpressed V2R, 1 μM
T3 construct: expressed in transfected cells; host or cells: U2OS cells
T3 sequence (P30518 whole entry, species assumed): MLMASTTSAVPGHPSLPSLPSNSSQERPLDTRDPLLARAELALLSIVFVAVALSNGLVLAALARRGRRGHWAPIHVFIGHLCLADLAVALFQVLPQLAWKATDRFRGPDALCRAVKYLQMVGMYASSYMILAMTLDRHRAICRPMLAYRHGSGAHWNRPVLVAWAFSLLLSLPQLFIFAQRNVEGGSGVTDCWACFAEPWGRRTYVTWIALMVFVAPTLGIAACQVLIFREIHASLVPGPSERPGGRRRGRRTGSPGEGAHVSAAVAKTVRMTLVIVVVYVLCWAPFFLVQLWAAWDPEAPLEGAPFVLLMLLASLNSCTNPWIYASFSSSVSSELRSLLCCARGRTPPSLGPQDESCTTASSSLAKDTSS
Method: (§1) U20S cells expressing HA-GPR35a/βarr2-GFP (also known as UGPR35β cells) were plated in a 24-well plate onto coverslips that were coated with poly-D-lysine (0.02 mg/ml; Sigma-Aldrich, St. Louis, Mo., USA) for 1 hour. Cells were maintained at 37° C., 5% CO2 until ready for experiment (90% confluent). Cells were washed once with Hanks' balanced salt solution (HBSS, Cellgro, Mediatech, Inc, Manassas, Va., USA) comprising CaCl2 0.14 g/L, KCl 0.4 g/L, KH2PO4 0.06 g/L, MgSO4 0.097 g/L, NaCl 8 g/L, Na2HPO4 0.047 g/L, NaHCO3 0.35 g/L, and D-glucose 1.0 g/L. For receptor activation, agonist-evoked redistribution of βarr2-GFP was measured by applying the drug for 40 minutes. For measuring the effects of antagonist, agonist and antagonist were co-applied.
(§2) Cells were then fixed with 4% paraformaldehyde for 20 minutes at room temperature, followed by three washes with HBSS.
In that panel, fluorescence was observed close to the cell membrane. As a control for drug specificity, 1 μM pamoic acid was added to a U2OS cell line containing β-arrestin2-GFP and overexpressed vasopressin receptor (V2R).

[6] = molecular target: T4, CB1 cannabinoid receptors (Homo sapiens, UniProt P21554); experiment: βarr2-GFP redistribution in U2OS cells co-expressing CB1 (specificity control); assay type: cell-based; conditions: U2OS cells co-expressing β-arr2-GFP and CB1, 1 μM; data not shown
T4 construct: expressed in transfected cells; host or cells: U2OS cells
T4 sequence (P21554 whole entry): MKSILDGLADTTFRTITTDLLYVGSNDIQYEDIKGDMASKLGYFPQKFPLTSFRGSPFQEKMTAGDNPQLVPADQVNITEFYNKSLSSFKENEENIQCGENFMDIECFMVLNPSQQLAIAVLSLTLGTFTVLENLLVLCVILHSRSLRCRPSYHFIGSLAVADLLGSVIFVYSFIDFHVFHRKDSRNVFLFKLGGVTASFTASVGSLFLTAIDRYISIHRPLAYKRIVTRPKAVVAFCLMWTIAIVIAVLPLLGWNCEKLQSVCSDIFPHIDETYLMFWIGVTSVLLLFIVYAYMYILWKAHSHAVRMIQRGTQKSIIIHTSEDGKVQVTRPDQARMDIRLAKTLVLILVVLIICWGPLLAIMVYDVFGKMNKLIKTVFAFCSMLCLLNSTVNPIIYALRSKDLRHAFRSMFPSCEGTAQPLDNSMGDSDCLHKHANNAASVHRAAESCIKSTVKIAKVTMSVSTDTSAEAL

[7] = molecular target: T5, GPR35a (Homo sapiens, UniProt Q9HC97, S294R); conditions: 3 μM; data not shown
T5 sequence (Q9HC97 whole entry S294R): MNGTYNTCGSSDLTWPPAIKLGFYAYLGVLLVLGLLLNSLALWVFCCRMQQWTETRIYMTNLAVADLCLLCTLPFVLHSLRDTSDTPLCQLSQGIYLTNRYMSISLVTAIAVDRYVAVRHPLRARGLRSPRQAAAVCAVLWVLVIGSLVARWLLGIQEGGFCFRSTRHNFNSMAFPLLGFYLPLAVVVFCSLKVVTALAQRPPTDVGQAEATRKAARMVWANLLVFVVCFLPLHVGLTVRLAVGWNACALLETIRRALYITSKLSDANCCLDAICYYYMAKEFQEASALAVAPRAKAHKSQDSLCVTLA

[8] = molecular target: T6, rat GPR35 (Rattus norvegicus, UniProt Q33BM1); conditions: CHO cells co-transfected with rat GPR35, Aequorin readout; Wang et al. 2006; read-out: EC50 for receptor activation; cited from earlier work
T6 construct: host or cells: CHO cells
T6 sequence (Q33BM1 1-306): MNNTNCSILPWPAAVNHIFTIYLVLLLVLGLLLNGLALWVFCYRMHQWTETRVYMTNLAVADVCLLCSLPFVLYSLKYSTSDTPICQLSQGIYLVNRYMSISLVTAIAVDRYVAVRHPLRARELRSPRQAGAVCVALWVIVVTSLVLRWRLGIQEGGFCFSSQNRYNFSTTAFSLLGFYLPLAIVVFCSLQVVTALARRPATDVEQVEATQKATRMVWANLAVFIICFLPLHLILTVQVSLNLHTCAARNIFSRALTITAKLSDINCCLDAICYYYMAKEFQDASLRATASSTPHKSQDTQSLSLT

[9] = molecular target: T5, GPR35a; experiment: β-arrestin2-GFP redistribution/aggregation in UGPR35β cells; assay type: cell-based; parameters: expressed in transfected cells; conditions: for activation of GPR35 (distribution of βarr2-GFP different from basal state): concentrations up to 30 μM
From the text: This cellular assay utilizes the intracellular β-arrestin protein as a reporter of receptor activity. […] Upon agonist-mediated GPCR activation, β-arrestins rapidly redistribute en masse to ligand-activated plasma membrane receptors (on the other hand, β-arrestins remain in the cytosol upon antagonist binding to the receptor). Activated GPCR/β-arrestin complexes will concentrate in clathrin-coated pits and/or internal vesicles where most GPCRs normally undergo internalization. At this juncture, the β-arrestin either (i) dissociates and returns to the cytoplasm, or (ii) further redistributes with the receptor into an intracellular endosomal vesicle, depending on the receptor type. It is the agonist-induced redistribution of β-arrestin-GFP into progressively smaller compartments (cytosolic compartment>plasma membrane>coated pit>endosomal compartment) that enables imaging of receptor activation.
This cell line is herein referred to as UGPR35β. Selected cells were maintained at 200 μg/ml G418® and 100 μg/ml Zeocin® at 37° C. and 5% CO2.
as §1, §2
βarr2-GFP aggregates were identified by a wavelet-based, Microsoft Windows-compatible computer program written in the MatLab programming environment. A program algorithm extracts from two dimensional images those pixels that generate objects of interest that fall within a predetermined range of sizes and intensities and that are embedded among widely varying local backgrounds (L. Barak, available from the Duke University GPCR Assay Bank). Concentration-effect curves for agonist-mediated receptor activation were analyzed by non-linear regression techniques using GraphPad Prism 4.0 software (GraphPad) and data were fitted to sigmoidal dose-response curves to obtain EC50 or IC50 values. Statistical analysis was performed using one-way analysis of variance (ANOVA) followed by Dunnett's post-test or two-tailed unpaired student t test. P values of <0.05 are considered significant.
A prototypical U2OS osteosarcoma cell line that permanently expresses β-arrestin-GFP and N-terminal triple HA-tagged human GPR35a was used to screen ligands for agonism or antagonism against the GPR35 receptor. […] Endogenous receptors are invisible to the assay because there are too few endogenous receptors of any type compared to the number of β-arrestin molecules in the cell to provide a measurable response.
Upon agonist-mediated GPCR activation, β-arrestins rapidly redistribute en masse to ligand-activated plasma membrane receptors, and then the activated GPCR/arrestin complexes concentrate in clathrincoated pits and/or internal vesicles.
Concentration response curves for β-arrestin2 aggregation were obtained for compounds of interest. For this study, UGPR35β cells were treated with different concentrations of a compound of interest and images of the cells (acquired in triplicate in three or more independent experiments) were analyzed for fluorescence.

[10] = molecular target: T7, mouse GPR35 (Mus musculus, UniProt Q9ES90); conditions: CHO cells co-transfected with mouse GPR35, Aequorin readout; Wang et al. 2006; read-out: EC50 for receptor activation; cited from earlier work
T7 construct: host or cells: CHO cells
T7 sequence (Q9ES90 whole entry): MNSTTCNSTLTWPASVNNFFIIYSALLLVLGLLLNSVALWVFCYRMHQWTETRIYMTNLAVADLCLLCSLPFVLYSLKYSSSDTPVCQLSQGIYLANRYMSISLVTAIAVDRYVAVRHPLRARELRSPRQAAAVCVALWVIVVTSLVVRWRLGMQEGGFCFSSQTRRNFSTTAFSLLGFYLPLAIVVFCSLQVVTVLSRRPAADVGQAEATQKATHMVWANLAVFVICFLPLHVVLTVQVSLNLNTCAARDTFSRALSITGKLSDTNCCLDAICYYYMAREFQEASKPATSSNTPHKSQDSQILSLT

[11] = molecular target: T8, human GPR35 (Homo sapiens, UniProt Q9HC97); conditions: CHO cells co-transfected with human GPR35, Aequorin readout; Wang et al. 2006; read-out: EC50 for receptor activation; cited from earlier work
T8 construct: host or cells: CHO cells
T8 sequence (Q9HC97 whole entry): as the sequence (Q9HC97 whole entry S294R) above, with R294S counted along it

[12] = molecular target: T1, GPR35; experiment: cell-based
Method: as §3, §4, §5, §6, §7, §8, §9

[13] = mean (95% confidence interval in brackets in the text), read-out: EC50 for β-arrestin2 aggregation
[14] = concentration response analysis, read-out: β-arrestin response (EC50)

T1 sequence (Q9HC97 whole entry S294R, the tested form may be a part): as the sequence (Q9HC97 whole entry S294R) above

Compound: pyrantel tartrate
activity in GPR35 internalization assay, in words [1]: inactive

Compound: O=C(O)c1cc2ccccc2c(Cc2c(O)c(C(=O)O)cc3ccccc23)c1O [disodium pamoate]
infarction percentage ([2]; given one hour prior to reperfusion, measured 24 hours after MCAO/R, control about 27%): about 17% | reduction in infarction percentage ([2]; versus untreated control): about 37% | mean number of writhes ([3]; 25 mg/kg s.c.): 14±2 | mean number of writhes ([3]; 50 mg/kg s.c.): 11±2 | mean number of writhes ([3]; 100 mg/kg s.c.): 0.4±0.2

Compound: O=C(O)c1cc2ccccc2c(Cc2c(O)c(C(=O)O)cc3ccccc23)c1O [Compound 1, 4-[(3-carboxy-2-hydroxynaphthalen-1-yl)methyl]-3-hydroxynaphthalene-2-carboxylic acid]
βarr2-GFP response [4]: no response was observed | change in β-arrestin2-GFP fluorescence distribution [5]: no change in fluorescence distribution was observed | βarr2-GFP response [6]: no response was observed | antinociceptive effect, in words ([3]; mice, s.c., dose of 100 mg/kg): essentially complete antinociception | subcutaneous dose causing 50% antinociception ([3]; mice, s.c., given as disodium pamoate, 95% CL 28.3-90.3 mg/kg): 40.5 mg/kg

effect on ERK1/2 activation [7]: inhibited ERK1/2 activation
Compound: N#CC(=C(N)Sc1ccccc1N)C(C#N)=C(N)Sc1ccccc1N [Compound U0126, 1,4-diamino-2,3-dicyano-1,4-bis(2-aminophenylthio)-butadiene]
effect on pamoic acid-induced ERK activation [7]: abolished pamoic acid-induced ERK activation

pEC50 [9, 13]: 3.66
Compound: O=C(O)c1cc(=O)c2ccccc2[nH]1 [kynurenic acid, 2-carboxy-4-hydroxy-quinoline]
pEC50 [8]: 5.15 | pEC50 [10]: 4.96 | pEC50 [11]: 4.40

Compound: oxantel pamoate [Compound 2]
pEC50 [9, 14]: 7.04 | log EC50 of GPR35 internalization ([1]; On-Cell Western, log(EC50)): −7.772 | pEC50 ([1]; read-out: EC50 of GPR35 internalization, On-Cell Western, corresponds to the log EC50): 7.77

pEC50 [12]: 7.05
Compound: CN1CCCN=C1/C=C/c1cccs1 [pyrantel pamoate]

potency as GPR35 agonist, in words ([9]; compared with the binaphthyl compounds): much less potent | pEC50 [9, 14]: 5.16
Compound: O=C(O)c1cc2cc(Br)ccc2cc1O [Compound 7, 7-bromo-3-hydroxy-2-naphthoic acid]

Compound: Cc1c(/C=C/C2CCCCC2)nn(-c2ccc(Cl)cc2Cl)c1-c1ccc(Cl)cc1 [VCHSR1, 5-(4-chlorophenyl)-3-[(E)-2-cyclohexylethenyl]-1-(2,4-dichlorophenyl)-4-methyl-1H-pyrazole]
activation of GPR35 (distribution of βarr2-GFP different from basal state) [9]: None of the compounds at concentrations up to 30 μM activated GPR35

pEC50 [9, 13]: 5.37
Compound: O=C(O)c1cc([N+](=O)[O-])ccc1NCCCc1ccccc1 [Compound 6, 5-Nitro-2-(3-phenylpropylamino)-benzoic acid]

Compound: C=C(C)[C@@H]1CCC(C)=C[C@H]1c1c(O)cc(CCCCC)cc1O [cannabidiol]
activation of GPR35 (distribution of βarr2-GFP different from basal state) [9]: None of the compounds at concentrations up to 30 μM activated GPR35

Reference: patent US9622995B2, “Treatment of disorders associated with G protein-coupled receptor 35 (GPR35)” (TEMPLE UNIVERSITY—OF THE COMMONWEALTH SYSTEM OF HIGHER …, priority 2009, dated 2017)
